{"source": "ChEMBL document CHEMBL1151395", "about": "“Cytotoxic Flavones From Centaurea urvillei” (J Nat Prod, 1982)", "system": "Fibroblast", "experiment": "Cytotoxicity against L-strain mouse fibroblasts at 0.05 mg/ml", "assay_type": "functional, cell-based", "note": "Active and inactive are the calls of the source. No cut-off for these calls is given here."}
{"molecule": "COc1c(O)cc2oc(-c3ccc(O)cc3)cc(=O)c2c1O", "values": [{"measurement": "Activity", "result": "Active"}]}
